The source of these data is ChEMBL document CHEMBL3124778, “Structure-based design of new dihydrofolate reductase antibacterial agents: 7-(benzimidazol-1-yl)-2,4-diaminoquinazolines” (J Med Chem, 2014).

In brackets after ≈: the same amount, converted by molar mass.

Experiment [1] has as its system Staphylococcus aureus. Description: Antibacterial activity against TMP-resistant Staphylococcus aureus expressing DHFR F99Y mutant after 18 to 24 hrs by alamar Blue assay. Type of experiment: functional.
The subject of experiment [2] is Staphylococcus aureus. Description: Antibacterial activity against Staphylococcus aureus ATCC 13709 after 18 to 24 hrs by alamar Blue assay in presence of 20% heat inactivated mouse serum. It is filed as functional. For orientation: Alamar Blue is a resazurin reagent that responds to reducing activity.
The nature of experiment [3]: Selectivity ratio of Ki for human DHFR to Ki for Staphylococcus aureus DHFR.
The target in experiment [4] is T1, Dihydrofolate reductase (Homo sapiens, UniProt P00374).
T1 sequence (P00374 whole entry): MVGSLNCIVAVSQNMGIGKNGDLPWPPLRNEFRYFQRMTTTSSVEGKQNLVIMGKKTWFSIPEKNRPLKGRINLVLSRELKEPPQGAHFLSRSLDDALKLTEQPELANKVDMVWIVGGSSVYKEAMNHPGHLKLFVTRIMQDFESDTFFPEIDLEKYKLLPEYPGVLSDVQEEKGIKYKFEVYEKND
Nature of the experiment: Inhibition of human DHFR using dihydrofolate as substrate preincubated for 10 mins followed by substrate addition by spectrophotometric analysis in presence of NADPH.

Experiment [5] has as its system Staphylococcus aureus. Nature of the experiment: Antibacterial activity against Staphylococcus aureus ATCC 13709 after 18 to 24 hrs by alamar Blue assay. It is filed as functional.
Experiment [6] addresses Dihydrofolate reductase (Staphylococcus aureus, UniProt P0A017). Description: Inhibition of Staphylococcus aureus DHFR using dihydrofolate as substrate preincubated for 10 mins followed by substrate addition by spectrophotometric analysis in presence of NADPH.
In experiment [7] the test system is Streptococcus pneumoniae. Nature of the experiment: Antibacterial activity against Streptococcus pneumoniae ATCC 700904 after 18 to 24 hrs by alamar Blue assay. It is filed as functional.
Experiment [8] relates to Streptococcus pneumoniae. Description: Antibacterial activity against Streptococcus pneumoniae ATCC 51916 after 18 to 24 hrs by alamar Blue assay. It is filed as functional.
For experiment [9], the system named is Streptococcus pneumoniae. Nature of the experiment: Antibacterial activity against Streptococcus pneumoniae ATCC 700671 after 18 to 24 hrs by alamar Blue assay. It is filed as functional.
The test system of experiment [10] is Streptococcus pneumoniae. Description: Antibacterial activity against Streptococcus pneumoniae ATCC 700675 after 18 to 24 hrs by alamar Blue assay. Type of experiment: functional.
For experiment [11], the system named is Streptococcus pneumoniae. Description: Antibacterial activity against Streptococcus pneumoniae ATCC 49619 after 18 to 24 hrs by alamar Blue assay. Type of experiment: functional.
Experiment [12] relates to Streptococcus pneumoniae. Description: Antibacterial activity against Streptococcus pneumoniae ATCC 700677 after 18 to 24 hrs by alamar Blue assay. Type of experiment: functional.
Experiment [13] deals with Streptococcus pneumoniae. Nature of the experiment: Antibacterial activity against Streptococcus pneumoniae ATCC 700669 after 18 to 24 hrs by alamar Blue assay. Type of experiment: functional.
Experiment [14] has as its system Streptococcus pneumoniae. Nature of the experiment: Antibacterial activity against Streptococcus pneumoniae ATCC 700676 after 18 to 24 hrs by alamar Blue assay. Type of experiment: functional.
Experiment [15] deals with Streptococcus pneumoniae. Description: Antibacterial activity against Streptococcus pneumoniae ATCC BAA-255 after 18 to 24 hrs by alamar Blue assay. It is filed as functional.
The test system of experiment [16] is Streptococcus pneumoniae. Description: Antibacterial activity against Streptococcus pneumoniae after 18 to 24 hrs by alamar Blue assay. It is filed as functional.
For experiment [17], the system named is Streptococcus pneumoniae. Description: Antibacterial activity against Streptococcus pneumoniae ATCC 700674 after 18 to 24 hrs by alamar Blue assay. It is filed as functional.

Chain of Dihydrofolate reductase (Staphylococcus aureus, UniProt P0A017) (P0A017 whole entry): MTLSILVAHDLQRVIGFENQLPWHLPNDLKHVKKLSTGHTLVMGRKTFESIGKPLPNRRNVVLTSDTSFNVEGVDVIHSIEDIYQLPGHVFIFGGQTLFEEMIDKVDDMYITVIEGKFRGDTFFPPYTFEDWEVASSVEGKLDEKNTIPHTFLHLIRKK

As to `COc1cc2nc(-c3ccccn3)n(-c3ccc4c(N)nc(N)nc4c3)c2cc1OC`, the MIC (commonly the least concentration at which growth counts as inhibited) was > 64 µg/mL against Staphylococcus aureus [1], 16 µg/mL with Staphylococcus aureus [2] and 4 µg/mL (≈ 9.67 µM) with Staphylococcus aureus [5]. For the same compound, the Ratio Ki in experiment [3] is 2300. For the same compound, the results for the Ki at Dihydrofolate reductase [4] and at Dihydrofolate reductase [6] were 841 nM and 0.36 nM, respectively.
Regarding `Cc1cc2nc(-c3ccoc3)n(-c3ccc4c(N)nc(N)nc4c3)c2cc1C`, the MIC against Staphylococcus aureus [1] came out at 2 µg/mL (≈ 5.4 µM); in the experiment on Staphylococcus aureus [2], 1 µg/mL; against Staphylococcus aureus [5] it was 0.06 µg/mL (≈ 0.162 µM). In addition, in experiment [3], the Ratio Ki worked out at 90000. Moreover, the Ki – broadly, the equilibrium dissociation constant of an inhibitor or competing ligand from its target – on Dihydrofolate reductase [4] stood at 723 nM; on Dihydrofolate reductase [6], 0.008 nM.
As for `Cc1cc2nc(-c3cscn3)n(-c3ccc4c(N)nc(N)nc4c3)c2cc1C`, the MIC against Staphylococcus aureus [1] turned out to be 16 µg/mL (≈ 41.3 µM); with Staphylococcus aureus [2] it was 2 µg/mL; in the experiment with Staphylococcus aureus [5], 2 µg/mL (≈ 5.16 µM). Moreover, in [3], the Ratio Ki came out at 11500. The Ki turned out to be 1100 nM on Dihydrofolate reductase [4] and 0.096 nM at Dihydrofolate reductase [6].
In the case of `Cc1cc2nc(-c3cccnc3)n(-c3ccc4c(N)nc(N)nc4c3)c2cc1C`, the results for the MIC with Staphylococcus aureus [1], with Staphylococcus aureus [2] and in the experiment with Staphylococcus aureus [5] were 32 µg/mL (≈ 83.9 µM), 2 µg/mL and 0.5 µg/mL (≈ 1.31 µM), respectively. For the same compound, the Ratio Ki in experiment [3] was > 1250. In addition, the results for the Ki on Dihydrofolate reductase [4] and at Dihydrofolate reductase [6] were 1560 nM and 0.26 nM, respectively.
As to `Cc1cc2nc(-c3cccs3)n(-c3ccc4c(N)nc(N)nc4c3)c2cc1C`, the MIC in the experiment with Streptococcus pneumoniae [7] was 4 µg/mL (≈ 10.3 µM); against Streptococcus pneumoniae [8] it was 4 µg/mL (≈ 10.3 µM); with Streptococcus pneumoniae [9], 32 µg/mL (≈ 82.8 µM); against Streptococcus pneumoniae [10], 1 µg/mL (≈ 2.59 µM); in the experiment on Streptococcus pneumoniae [11] it was ≤ 0.5 µg/mL; with Streptococcus pneumoniae [12], 0.25 µg/mL (≈ 0.647 µM). Moreover, the MIC is 0.25 µg/mL (≈ 0.647 µM) in the experiment on Staphylococcus aureus [1]; 4 µg/mL (≈ 10.3 µM) in the experiment with Streptococcus pneumoniae [13]; 0.25 µg/mL (≈ 0.647 µM) against Streptococcus pneumoniae [14]; ≤ 0.125 µg/mL against Streptococcus pneumoniae [15]; 16 µg/mL (≈ 41.4 µM) against Streptococcus pneumoniae [17]; 0.015 µg/mL (≈ 0.0388 µM) in the experiment on Staphylococcus aureus [5]. Moreover, the MIC50 (in general, the lowest concentration that inhibits either 50% of growth or 50% of the strains tested, depending on the study) with Streptococcus pneumoniae [16] turned out to be 1 µg/mL (≈ 2.59 µM). In the experiment with Streptococcus pneumoniae [16], the MIC90 (as a rule, the lowest concentration that inhibits either 90% of growth or 90% of the strains tested, depending on the study) is 16 µg/mL (≈ 41.4 µM).
On to `Cc1cc2nc(-c3cccs3)n(-c3cc4nc(N)nc(N)c4cc3Cl)c2cc1C`, for which the MIC is 4 µg/mL (≈ 9.5 µM) in the experiment with Streptococcus pneumoniae [7]; 1 µg/mL (≈ 2.38 µM) against Streptococcus pneumoniae [8]; > 64 µg/mL in the experiment on Streptococcus pneumoniae [9]; 1 µg/mL (≈ 2.38 µM) against Streptococcus pneumoniae [10]; 0.5 µg/mL (≈ 1.19 µM) in the experiment on Streptococcus pneumoniae [11]; 0.25 µg/mL (≈ 0.594 µM) with Streptococcus pneumoniae [12]. For the same compound, the MIC against Staphylococcus aureus [1] is 4 µg/mL (≈ 9.5 µM); against Streptococcus pneumoniae [13], 2 µg/mL (≈ 4.75 µM); against Streptococcus pneumoniae [14], 0.25 µg/mL (≈ 0.594 µM); in the experiment on Streptococcus pneumoniae [15] it was ≤ 0.125 µg/mL; in the experiment on Staphylococcus aureus [2], 1 µg/mL; in the experiment with Streptococcus pneumoniae [17], > 64 µg/mL. The MIC in the experiment on Staphylococcus aureus [5] came to 0.03 µg/mL (≈ 0.0713 µM). The MIC50 against Streptococcus pneumoniae [16] was 1 µg/mL (≈ 2.38 µM). For the same compound, the MIC90 in the experiment with Streptococcus pneumoniae [16] was > 64 µg/mL. In addition, the values for the Ki on Dihydrofolate reductase [4] and at Dihydrofolate reductase [6] were > 3000 nM and 0.01 nM, respectively.
`COc1cc2nc(-c3nccs3)n(-c3cc4nc(N)nc(N)c4cc3C)c2cc1OC`: the MIC with Staphylococcus aureus [1] worked out at 8 µg/mL (≈ 18.5 µM); in the experiment with Staphylococcus aureus [2] it was 0.5 µg/mL; against Staphylococcus aureus [5] it was 0.5 µg/mL (≈ 1.15 µM). Also, the Ratio Ki in experiment [3] is 8950.
For `COc1cc(Cc2cnc(N)nc2N)c2c(c1OC)OC(C1CC1)C=C2` (stereo not given), the MIC was 4 µg/mL (≈ 11.3 µM) against Streptococcus pneumoniae [7]; 1 µg/mL (≈ 2.82 µM) in the experiment on Streptococcus pneumoniae [8]; 16 µg/mL (≈ 45.1 µM) in the experiment with Streptococcus pneumoniae [9]; ≤ 0.5 µg/mL in the experiment with Streptococcus pneumoniae [10]; 0.125 µg/mL (≈ 0.353 µM) in the experiment with Streptococcus pneumoniae [11]; ≤ 0.5 µg/mL against Streptococcus pneumoniae [12]. Also, the MIC was 8 µg/mL (≈ 22.6 µM) against Streptococcus pneumoniae [13]; ≤ 0.5 µg/mL against Streptococcus pneumoniae [14]; ≤ 0.5 µg/mL against Streptococcus pneumoniae [15]; 0.125 µg/mL with Staphylococcus aureus [2]; 8 µg/mL (≈ 22.6 µM) against Streptococcus pneumoniae [17]; 0.125 µg/mL (≈ 0.353 µM) in the experiment with Staphylococcus aureus [5]. Further, the MIC50 against Streptococcus pneumoniae [16] was ≤ 0.5 µg/mL. Besides, in the experiment on Streptococcus pneumoniae [16], the MIC90 is 8 µg/mL (≈ 22.6 µM).
As to `COc1cc(Cc2cnc(N)nc2N)cc(OC)c1OC` [TRIMETHOPRIM], the MIC was > 64 µg/mL in the experiment on Streptococcus pneumoniae [7]; > 64 µg/mL against Streptococcus pneumoniae [8]; > 64 µg/mL against Streptococcus pneumoniae [9]; 8 µg/mL (≈ 27.6 µM) against Streptococcus pneumoniae [10]; 4 µg/mL (≈ 13.8 µM) with Streptococcus pneumoniae [11]; 4 µg/mL (≈ 13.8 µM) in the experiment with Streptococcus pneumoniae [12]. Further, the MIC in the experiment with Streptococcus pneumoniae [13] was > 64 µg/mL; in the experiment with Streptococcus pneumoniae [14] it was 4 µg/mL (≈ 13.8 µM); in the experiment on Streptococcus pneumoniae [15] it was 0.5 µg/mL (≈ 1.72 µM); with Streptococcus pneumoniae [17] it was > 64 µg/mL. For the same compound, the MIC50 in the experiment with Streptococcus pneumoniae [16] is 8 µg/mL (≈ 27.6 µM). Also, the MIC90 against Streptococcus pneumoniae [16] is > 64 µg/mL.
